Results on 4 compounds are retold here after PMC7406860, “Redox Imbalance and Oxidative DNA Damage During Isoniazid Treatment of HIV-Associated Tuberculosis: A Clinical and Translational Pharmacokinetic Study” (Frontiers in Pharmacology, 2020).

Structures are written as SMILES. Read-outs that look alike come from different tables or passages of the source.

The nature of data set [1]: Clinical parent-metabolite pharmacokinetic study, plasma exposures after oral isoniazid. Format: in vivo, human (TB patients). As to conditions: for AUC(0-t): human. The protocol: The parent-metabolite clinical pharmacokinetic study was approved by the Institutional Review Board of Rutgers University, Newark (protocol #20170001150). We performed intensive pharmacokinetic sampling for drug and metabolite concentrations in 10 TB patients (4 latent infection patients and 6 active TB patients) treated with isoniazid, in order to identify the relevant metabolite concentrations for subsequent pre-clinical experiments. After an overnight fast, patients were dosed with oral isoniazid (300 mg). A pre-dose blood draw was performed, with additional blood draws at 1, 2, 4, 6, and 8 h after dosing. Following centrifugation, plasma samples were stored at -80C until shipment to Alturas Analytics (Moscow, ID) for analysis. […] Noncompartmental pharmacokinetic analysis was performed to determine area under the concentration-versus-time curve (AUC), extrapolated over a 24-h dosing interval according to the slope defined in the elimination phase.

The subject of data set [2] is HepG2 cells. Kind of data set: CometChip imaging of cellular DNA damage. Format: cell-based, human. The settings on record: HepG2, 10 µM, 1 week; as compared to isoniazid. The protocol: (§1) The human liver carcinoma cell line, HepG2, is highly differentiated and is often used to screen the cytotoxicity potential of new chemical entities early in drug development ([Gerets et al., 2012]). HepG2 cells were cultured in Dulbecco’s modified Eagle’s medium (DMEM) supplemented with 10% fetal bovine serum (FBS), 100 U/ml penicillin, 100 μg/ml streptomycin, and 2mM L-glutamine, unless otherwise stated. Cells were continuously incubated at 37°C in a humidified 5% CO2/95% air environment and plated in a 12-well plate at 4x10^5 cells/well, over a duration of 24 h prior to compound exposure. Compound stocks dissolved in water were freshly made each exposure day. Cellular supernatant was replaced with 2 ml of culture media containing 10 µM of compound and left to incubate until 90% confluency was reached. Cell passages were conducted every 3 days under continual exposure to the designated compound for the indicated time period. Cellular supernatant was collected at each passage, clarified, aliquoted, and stored at -80°C for future analysis. Treated cells and supernatants were then examined for markers of cytotoxicity, mitochondrial toxicity, and oxidative DNA damage as described below.
Cells treated for 1 week with 10 µM of compound were plated onto a CometChip (Trevigen) at 2x10^5 cells/ml in a single cell suspension ([Ge et al., 2014]). Cells were incubated on the chip for 60 min at 37°C. The plate was then gently washed with PBS and coated with 1% low melting agarose. After the agarose was solidified by cooling at 4°C, the plate was washed with pre-chilled non-activated alkaline lysis buffer (2.5 M NaCl, […] Na2EDTA, 10mM Tris, pH 10). The chip was lysed overnight at 4°C by submerging the chip in the alkaline lysis buffer containing 1% Triton-X. The plate was then washed with PBS and placed in an electrophoresis chamber filled with pre-chilled alkaline electrophoresis buffer (2mM Na2 EDTA, 300 mM NaOH). Following a 40 min incubation at 4°C to allow for alkaline unwinding, electrophoresis was carried out at 80 volts for 30 min at 4°C. […]

Data set [3] has as its system HepG2 cells. Kind of data set: Free thiol availability assay (ThiolTracker Violet), glutathione depletion. Format: cell-based, human. As to conditions: HepG2, 10 µM, 28-day exposure period. The method, then:
as §1, with “Cellular supernatant was collected at each passage, clarified, aliquoted, and stored at -80°C for future analysis. Treated cells and supernatants were then examined for markers of cytotoxicity, mitochondrial toxicity, and oxidative DNA damage as described below.” left out
By serving as targets of ROS, thiols provide the cellular defense system against oxidative stress. […] Cellular glutathione depletion was quantified in a free thiol availability assay ([Mandavilli and Janes, 2010]). […] Following a 30 min incubation at 37°C, cells were washed three times with D-PBS +C/M. Fluorescent intensity at 404nmEx/526nmEm was measured on a Synergy H1 Hybrid Multi-Mode Reader (BioTek).

Data set [4] deals with HepG2 cells. Kind of data set: Mitochondrial membrane integrity (TMRM). The settings on record: HepG2, 10 µM, 28 days of exposure. It is filed as cell-based, human. The method, then: as §1, with “Treated cells and supernatants were then examined for markers of cytotoxicity, mitochondrial toxicity, and oxidative DNA damage as described below.” left out
To assess mitochondrial membrane integrity, black 96-well polystyrene clear bottom plates were coated with 50 µg/ml of poly-d-lysine for 1 h at 37°C. […] Following three washes with PBS, fluorescent intensity at 488nmEx/570nmEm was measured on a Synergy H1 Hybrid Multi-Mode Reader (BioTek).

The subject of data set [5] is HepG2 cells. Kind of data set: ATP production (Mitochondrial ToxGlo Assay). Format: cell-based, human. The settings on record: HepG2, 10 µM, 28 days of treatment. The protocol: The human liver carcinoma cell line, HepG2, is highly differentiated and is often used to screen the cytotoxicity potential of new chemical entities early in drug development ([Gerets et al., 2012]). HepG2 cells were cultured in Dulbecco’s modified Eagle’s medium (DMEM) supplemented with 10% fetal bovine serum (FBS), 100 U/ml penicillin, 100 μg/ml streptomycin, and 2mM L-glutamine, unless otherwise stated. Cells were continuously incubated at 37°C in a humidified 5% CO2/95% air environment and plated in a 12-well plate at 4x10^5 cells/well, over a duration of 24 h prior to compound exposure. Compound stocks dissolved in water were freshly made each exposure day. […]
Mitochondrial toxicity analysis was assayed using the Mitochondrial ToxGlo Assay (Promega, Madison, WI) following the manufacturer’s instructions. […] Following a 24-h incubation with compound, cytotoxicity was evaluated by the addition of a fluorogenic peptide substrate, bis-AAF-R110, to the cell supernatant for 30 min at 37°C. […] After the cells were allowed to incubate for 30 min at 37°C, fluorescence intensity was measured at 485nmEx/525nmEm. […] Cell lysis mixture was transferred to a 96-well flat solid white bottom plate and luminescence intensity was measured. Assays of fluorescence and luminescence activity were performed with a Synergy H1 Hybrid Multi-Mode Reader (BioTek, Winooski, VT).

The subject of data set [6] is HepG2 cells. Briefly: Immunofluorescence for γ-H2AX. As to conditions: HepG2, 10 µM, 1-week exposure period; compared among the four compounds. Format: cell-based, human. The method, then: as §1
H2Ax is a core histone protein found in the nucleosome, and the phosphorylation of H2Ax is a marker of DNA damage caused by ROS. […]

The test system of data set [7] is HepG2 cells. Kind of data set: 8-OHdG in cellular supernatant (competition ELISA). Format: cell-based, human. As to conditions: HepG2, 10 µM, 28 days exposure. The method, then:
as §1
Determination of 8-OHdG content in cellular supernatant was assed using an in-house competition ELISA. […] Absorbance at 405 nm was then measured on a Synergy H1 Hybrid Multi-Mode Reader (BioTek).
For orientation: An ELISA detects its analyte on a solid surface through an enzyme-linked reagent.

The subject of data set [8] is HepG2 cells. Briefly: Cytotoxicity (bis-AAF-R110 substrate, Mitochondrial ToxGlo Assay), long-term exposure. It is filed as cell-based, human. As to conditions: HepG2, 10 µM, up to 28 days exposure.
Data set [9] in a line: Linear regression of urine oxidative DNA damage (8-OHdG) on isoniazid pharmacokinetic exposures in HIV/TB patients. Format: in vivo, human (HIV/TB patients, Botswana). The source says:
We conducted a prospective cohort study of isoniazid pharmacokinetics among HIV/TB patients at 22 public clinics and Princess Marina Hospital in Gaborone, Botswana. The study population has been previously described ([Vinnard et al., 2017]). Eligibility criteria included citizens of Botswana, HIV infected adults (21 years of age or older) naïve to ART therapy, and newly diagnosed with pulmonary TB initiated on standard first-line TB regimens at weight-based dosing bands recommended in accordance with WHO guidelines. The study visit occurred between 5 and 28 days after initiation of first-line TB therapy that included isoniazid, prior to initiation of ART therapy.
After an overnight fast, the anti-TB drugs were directly administered. Blood samples (10 ml) were drawn at 0, 0.3, 0.9, 2.2, 4.5, and 8 h post-dosing, based on optimal sampling theory to estimate isoniazid pharmacokinetic parameters. Plasma isoniazid concentrations were measured with liquid chromatography-tandem mass spectrometry (LC-MS/MS) methods as previously described. The peak plasma concentration (Cmax) was obtained directly from the concentration-versus-time data), model-predicted isoniazid concentrations were used to estimate the area under the concentration-versus-time curve during a 24-h interval (AUC0-24). A spot urine sample (approximately 50 ml) was collected 4 h following anti-TB drug dosing and frozen at -80C until analysis. We measured urinary concentrations of 8-OHdG, a marker of oxidative DNA damage that is stable in cryopreserved urine samples, normalized to urine creatinine. The DNA Damage Competitive ELISA kit (ThermoFisher Scientific) was performed using a 1:4 dilution of urine-to-assay buffer. The manufacturer’s instructions were followed with one modification to the protocol. Antigen binding was performed overnight at 4°C with shaking in lieu of a 2-h incubation at room temperature. Each assay was performed in triplicate. Optical absorption was assessed using a Synergy H1 Hybrid Multimode Reader (BioTek). […]

[10] abbreviates: 10 isoniazid-treated patients, oral isoniazid 300 mg, noncompartmental, extrapolated over 24-h dosing interval.

Turning to `CC(=O)NN` [Acetylhydrazine], the “Observed median (range) of plasma AUC0-24” value in data set [1] (setting [10]) is listed as 66.6 (43.2, 198.0) uM*hr. Further, the “DNA damage by CometChip microscopy” value in the data set on HepG2 cells [2] is reported as “greater levels of DNA damage”.
On to `CC(=O)NNC(=O)c1ccncc1` [Acetylisoniazid], for which the AUC(0-t) in [1] (in vivo, po, 300 mg) turned out to be 158 µM·h. For the same compound, in the data set with HepG2 cells [2], the “DNA damage by CometChip microscopy” value was “greater levels of DNA damage”.
For `NN` [Hydrazine], the “Observed median (range) of plasma AUC0-24” value in [1] (setting [10]) is recorded as 14.5 (3.0, 27.8) uM*hr. In the data set on HepG2 cells [3], the “Thiol depletion (free thiol availability)” value is “greatest”. The “TMRM depletion (mitochondrial membrane integrity)” value with HepG2 cells [4] is “greatest depletion”. Moreover, the “Cellular ATP production impairment” value with HepG2 cells [5] is reported as “greatest impairment”. For the same compound, the “DNA damage by CometChip microscopy” value with HepG2 cells [2] is given as “greater levels of DNA damage”. The “γ-H2AX levels (double-stranded DNA breaks)” value in the data set on HepG2 cells [6] is listed as “greatest”. Moreover, the “8-OhDG levels in cell supernatant” value with HepG2 cells [7] is given as “highest increase”.
For the compound `NNC(=O)c1ccncc1` [Isoniazid], the AUC(0-t) in [1] (plasma, 10 isoniazid-treated patients, oral isoniazid 300 mg, noncompartmental, extrapolated over 24-h dosing interval, read-out: Observed median (range) of plasma AUC0-24) was 60.5 µM·h. For the same compound, in the data set with HepG2 cells [8], the Overall cytotoxicity entry is on record as “no appreciable cytotoxicity”. Also, the “Unadjusted regression coefficient (95% CI), isoniazid log AUC0-24 vs urine oxidative DNA damage” value in data set [9] (HIV/TB patients, first-line TB therapy) is listed as 0.474 (-0.272, 1.221). Besides, the “Unadjusted regression coefficient (95% CI), isoniazid Cmax (mg/L) vs urine oxidative DNA damage” value in data set [9] (HIV/TB patients, first-line TB therapy, urine 8-OHdG normalized to creatinine) is 0.153 (-0.060, 0.366). In addition, the “Adjusted regression coefficient (95% CI), isoniazid Cmax (mg/L) vs urine oxidative DNA damage” value in data set [9] (adjusted for body weight, creatinine clearance, GSTA2 genotype) is 0.241 (0.020, 0.462).
